# Where “and” joins values, the source holds several entries; their conditions need not be identical. Equal entries are not always repeated.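 In this assay, cells in 96-well plates receive the compound at five concentrations for 48 hours. Endpoints are linearly interpolated between the surrounding concentrations. At the GI50, growth is halved. TGI denotes the concentration required for complete inhibition of growth.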
# Experiments:
# Assay in all cases: NCI-60 cell line screen, 48 h
# [1] = system: NCI-H23 lung
# [2] = system: NCI-H460 lung
# [3] = system: NCI-H522 lung
# [4] = system: NCI/ADR-RES ovarian
# [5] = system: OVCAR-3 ovarian
# [6] = system: OVCAR-4 ovarian
# [7] = system: OVCAR-5 ovarian
# [8] = system: OVCAR-8 ovarian
# [9] = system: PC-3 prostate
# [10] = system: RPMI-8226 leukemia
# [11] = system: RXF 393 renal
# [12] = system: SF-268 CNS
# [13] = system: SF-295 CNS
# [14] = system: SF-539 CNS
# [15] = system: SK-MEL-2 melanoma
# [16] = system: SK-MEL-28 melanoma
# [17] = system: SK-MEL-5 melanoma
# [18] = system: SK-OV-3 ovarian
# [19] = system: SN12C renal
# [20] = system: SNB-19 CNS
# [21] = system: SNB-75 CNS
# [22] = system: SR leukemia
# [23] = system: SW-620 colon
# [24] = system: T-47D breast
# [25] = system: TK-10 renal
# [26] = system: U251 CNS
# [27] = system: UACC-257 melanoma
# [28] = system: UACC-62 melanoma
# [29] = system: UO-31 renal
compound,measurement,setting,value
Cc1ccc(-n2nc(C(C)(C)C)cc2NC(=O)NCc2cc(F)ccc2Oc2ccc3c(cnn3CCO)c2)cc1,GI50,[1],5.6 µM and 6.17 µM
same,TGI,[1],> 85.3 µM
same,GI50,[2],> 10 µM and 4.85 µM
same,TGI,[2],> 59.7 µM
same,GI50,[3],> 10 µM and 5.32 µM
same,TGI,[3],> 10 µM and 37.8 µM
same,GI50,[4],> 10 µM and 7.5 µM
same,TGI,[4],> 100 µM
same,GI50,[5],> 10 µM and 7.65 µM
same,TGI,[5],> 76.5 µM
same,GI50,[6],> 10 µM and 4.1 µM
same,TGI,[6],> 100 µM
same,GI50,[7],> 10 µM and 1.89 µM
same,TGI,[7],> 31.6 µM
same,GI50,[8],> 10 µM and 8.96 µM
same,TGI,[8],> 100 µM
same,GI50,[9],> 10 µM and 5.28 µM
same,TGI,[9],> 100 µM
same,GI50,[10],3.28 µM and 2.7 µM
same,TGI,[10],> 10 µM and 28.7 µM
same,GI50,[11],7.04 µM and 4.64 µM
same,TGI,[11],> 10 µM and 23.7 µM
same,GI50,[12],> 10 µM and 4.61 µM
same,TGI,[12],> 100 µM
same,GI50,[13],> 10 µM and 10.2 µM
same,TGI,[13],> 100 µM
same,GI50,[14],> 10 µM and 6.83 µM
same,TGI,[14],> 93.1 µM
same,GI50,[15],2.98 µM and 4.42 µM
same,TGI,[15],> 10 µM and 13 µM
same,GI50,[16],0.511 µM and 0.989 µM
same,TGI,[16],> 20.9 µM
same,GI50,[17],2.39 µM and 3.15 µM
same,TGI,[17],> 10 µM and 13.2 µM
same,GI50,[18],> 10 µM and 9.24 µM
same,TGI,[18],> 83.9 µM
same,GI50,[19],> 10 µM and 6.27 µM
same,TGI,[19],> 100 µM
same,GI50,[20],> 10 µM and 17.9 µM
same,TGI,[20],> 100 µM
same,GI50,[21],> 10 µM and 14.8 µM
same,TGI,[21],> 100 µM
same,GI50,[22],> 10 µM and 1.12 µM
same,TGI,[22],> 10 µM and 4.33 µM
same,GI50,[23],> 10 µM and 6.34 µM
same,TGI,[23],> 100 µM
same,GI50,[24],3.79 µM and 3.76 µM
same,TGI,[24],> 10 µM and 32.7 µM
same,GI50,[25],> 10 µM and 10.8 µM
same,TGI,[25],> 91.9 µM
same,GI50,[26],> 10 µM and 7.01 µM
same,TGI,[26],> 100 µM
same,GI50,[27],1.19 µM and 2.32 µM
same,TGI,[27],> 10 µM and 10.4 µM
same,GI50,[28],0.667 µM
same,TGI,[28],> 39.8 µM
same,GI50,[29],1.33 µM and 2.76 µM
same,TGI,[29],> 55.5 µM

# From PubChem BioAssay (NCI)
